The term IC50 denotes the point on the concentration scale where inhibition reaches its midpoint. What is called Ki is the equilibrium dissociation constant of an inhibitor or competing ligand from its target.

One assay addresses T1, Adenosine receptor A1 (Homo sapiens, UniProt P30542).
T1 sequence (P30542 whole entry): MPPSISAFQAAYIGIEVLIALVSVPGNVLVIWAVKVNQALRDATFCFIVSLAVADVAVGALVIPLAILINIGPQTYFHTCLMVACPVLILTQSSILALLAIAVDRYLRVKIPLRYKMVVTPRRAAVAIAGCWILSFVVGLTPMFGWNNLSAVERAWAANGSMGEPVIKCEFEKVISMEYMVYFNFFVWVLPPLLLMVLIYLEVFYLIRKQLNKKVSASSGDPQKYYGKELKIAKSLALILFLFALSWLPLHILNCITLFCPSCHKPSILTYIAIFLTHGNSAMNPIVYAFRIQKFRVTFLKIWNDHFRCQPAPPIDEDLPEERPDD
The format is cell membranes, CHO, Membrane. Particulars: cho.

Assay [1] concerns the target Receptor tyrosine-protein kinase erbB-2 (Homo sapiens, UniProt P04626). The assay can be described thus: biochemical. Format: cell-based, Insect cells. Particulars: insect cells.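 Further: inhibition of HER2 kinase enzyme activity, measured with Poly(Glu:Tyr) as the phosphorylation substrate; in other assays of this panel Not Active means under 50% inhibition at 10 µM.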
Assay [2] concerns the target T2, Alpha-1A adrenergic receptor (Rattus norvegicus, UniProt P43140).
T2 sequence (P43140 whole entry): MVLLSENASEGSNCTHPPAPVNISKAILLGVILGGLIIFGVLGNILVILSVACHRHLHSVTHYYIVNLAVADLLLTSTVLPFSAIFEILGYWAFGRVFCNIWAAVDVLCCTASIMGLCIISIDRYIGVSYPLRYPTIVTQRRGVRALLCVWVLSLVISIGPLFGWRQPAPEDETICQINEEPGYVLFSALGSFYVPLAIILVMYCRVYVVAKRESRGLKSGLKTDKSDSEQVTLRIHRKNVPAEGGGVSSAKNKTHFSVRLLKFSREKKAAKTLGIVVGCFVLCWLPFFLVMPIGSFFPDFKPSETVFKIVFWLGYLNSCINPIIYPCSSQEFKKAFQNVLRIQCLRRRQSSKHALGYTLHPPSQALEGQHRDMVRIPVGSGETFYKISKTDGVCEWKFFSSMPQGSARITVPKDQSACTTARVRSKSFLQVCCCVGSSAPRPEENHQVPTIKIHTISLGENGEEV
The assay can be described thus: DRUGMATRIX: Alpha-1A adrenergic receptor radioligand binding (ligand: prazosin). Format: cell membranes, Wistar, Submaxillary gland, Membrane. Particulars: Not Active = under 50% inhibition at 10 µM.

Assay [3] concerns the target T3, Alpha-2A adrenergic receptor (Homo sapiens, UniProt P08913). Further: in other assays of this panel Not Active means under 50% inhibition at 10 µM.
T3 sequence (P08913 whole entry): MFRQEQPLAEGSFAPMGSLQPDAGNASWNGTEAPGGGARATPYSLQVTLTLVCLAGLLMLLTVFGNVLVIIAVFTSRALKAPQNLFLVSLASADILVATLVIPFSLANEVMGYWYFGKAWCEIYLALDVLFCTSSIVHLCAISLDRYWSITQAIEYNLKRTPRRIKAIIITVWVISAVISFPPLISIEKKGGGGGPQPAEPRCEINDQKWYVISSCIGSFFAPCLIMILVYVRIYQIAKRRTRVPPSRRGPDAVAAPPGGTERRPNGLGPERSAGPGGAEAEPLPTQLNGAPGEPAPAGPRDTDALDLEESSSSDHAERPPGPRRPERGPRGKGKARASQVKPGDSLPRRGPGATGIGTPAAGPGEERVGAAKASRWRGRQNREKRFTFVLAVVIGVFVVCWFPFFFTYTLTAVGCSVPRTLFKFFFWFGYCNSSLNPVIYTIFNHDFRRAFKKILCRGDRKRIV
The format is cell membranes, Sf9, Membrane. Particulars: sf9.

Assay [4] deals with T4, Neuropeptide Y receptor type 2 (Homo sapiens, UniProt P49146).
T4 sequence (P49146 whole entry): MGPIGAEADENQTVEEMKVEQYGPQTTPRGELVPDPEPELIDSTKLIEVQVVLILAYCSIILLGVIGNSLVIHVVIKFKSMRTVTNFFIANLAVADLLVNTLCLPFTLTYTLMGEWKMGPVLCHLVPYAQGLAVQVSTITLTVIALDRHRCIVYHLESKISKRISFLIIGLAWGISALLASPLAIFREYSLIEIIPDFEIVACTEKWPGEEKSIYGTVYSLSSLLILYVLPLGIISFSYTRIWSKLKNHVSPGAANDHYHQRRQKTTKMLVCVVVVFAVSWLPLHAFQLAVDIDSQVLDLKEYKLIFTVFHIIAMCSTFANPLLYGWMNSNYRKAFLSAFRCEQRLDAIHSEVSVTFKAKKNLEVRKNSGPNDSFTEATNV
Format: cell membranes, Membrane. Particulars: kan-ts.

The target in assay [5] is T5, C-X-C chemokine receptor type 1 (Homo sapiens, UniProt P25024). Further: in other assays of this panel Not Active means under 50% inhibition at 10 µM.
T5 sequence (P25024 whole entry): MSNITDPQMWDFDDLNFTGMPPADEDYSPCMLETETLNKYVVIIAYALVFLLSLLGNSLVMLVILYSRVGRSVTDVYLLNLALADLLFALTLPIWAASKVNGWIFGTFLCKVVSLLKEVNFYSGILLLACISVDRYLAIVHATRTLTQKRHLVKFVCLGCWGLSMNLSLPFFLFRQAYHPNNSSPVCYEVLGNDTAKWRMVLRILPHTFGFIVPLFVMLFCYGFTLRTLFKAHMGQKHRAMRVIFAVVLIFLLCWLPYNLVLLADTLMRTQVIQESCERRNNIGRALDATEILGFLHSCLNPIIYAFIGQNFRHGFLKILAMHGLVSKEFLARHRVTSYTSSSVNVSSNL

Assay [6] is described as follows: DRUGMATRIX: Calcium Channel Type L, Phenylalkylamine radioligand binding (ligand: [3H] (-)-Desmethoxyverapamil (D-888)). Format: cell membranes, Rattus norvegicus, Wistar, Brain, Membrane. Particulars: Not Active = under 50% inhibition at 10 µM.
In assay [7] the target is Sigma non-opioid intracellular receptor 1 (Homo sapiens, UniProt Q99720). Kind of assay: DRUGMATRIX: Sigma1 radioligand binding (ligand: [3H] Haloperidol). Format: cell membranes, Jurkat, Membrane. Particulars: jurkat; Not Active = under 50% inhibition at 10 µM.
Sigma non-opioid intracellular receptor 1, sequence (Q99720 whole entry): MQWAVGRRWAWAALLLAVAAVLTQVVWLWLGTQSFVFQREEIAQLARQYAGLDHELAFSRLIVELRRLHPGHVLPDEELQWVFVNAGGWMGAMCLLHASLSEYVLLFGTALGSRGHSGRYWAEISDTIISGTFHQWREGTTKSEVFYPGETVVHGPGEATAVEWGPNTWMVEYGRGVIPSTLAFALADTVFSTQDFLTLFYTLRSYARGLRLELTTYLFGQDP
A further assay concerns the target T6, Endothelin-1 receptor (Homo sapiens, UniProt P25101). Further: in other assays of this panel Not Active means under 50% inhibition at 10 µM.
T6 sequence (P25101 whole entry): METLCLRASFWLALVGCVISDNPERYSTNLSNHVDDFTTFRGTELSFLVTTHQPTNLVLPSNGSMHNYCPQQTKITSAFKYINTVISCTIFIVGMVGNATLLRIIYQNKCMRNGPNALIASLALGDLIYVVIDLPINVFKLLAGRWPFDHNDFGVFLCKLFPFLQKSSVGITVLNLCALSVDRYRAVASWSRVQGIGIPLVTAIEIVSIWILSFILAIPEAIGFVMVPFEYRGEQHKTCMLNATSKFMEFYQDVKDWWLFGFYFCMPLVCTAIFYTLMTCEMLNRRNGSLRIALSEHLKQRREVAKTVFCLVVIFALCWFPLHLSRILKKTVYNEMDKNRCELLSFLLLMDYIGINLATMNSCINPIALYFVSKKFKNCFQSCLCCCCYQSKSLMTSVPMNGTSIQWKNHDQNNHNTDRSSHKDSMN
The format is cell membranes, Membrane. Particulars: cho-k1.

With `COc1cc(C(=O)NC2CCCNC2)cc(OC)c1OC` (stereo not drawn) [TROXIPIDE], the IC50 result (on Adenosine receptor A1; in assay [1]; in [2]; in assay [3]; in [4]; in [5]) was “Not Active” in each case. Further, the IC50 entry (in assay [6]; in assay [7]; at Endothelin-1 receptor) was “Not Active” each time. For the same molecule, the Ki entry in assay [6] was “Not Active”.
Consider `CC(C)[C@H](N)C(=O)OCCOCn1cnc2c(=O)nc(N)[nH]c21` [VALACYCLOVIR], for which the IC50 result (against Adenosine receptor A1; in assay [1]; in assay [2]; in [3]; in [4]; in assay [5]) was “Not Active” throughout. In addition, the IC50 entry (in assay [6]; in assay [7]; at Endothelin-1 receptor) was “Not Active” throughout. In [6], the Ki result is recorded as “Not Active”.
For the molecule `CN[C@H](CC(C)C)C(=O)N[C@H]1C(=O)N[C@@H](CC(N)=O)C(=O)N[C@H]2C(=O)N[C@H]3C(=O)N[C@H](C(=O)N[C@H](C(=O)O)c4cc(O)cc(O)c4-c4cc3ccc4O)[C@H](O)c3ccc(c(Cl)c3)Oc3cc2cc(c3O[C@@H]2O[C@H](CO)[C@@H](O)[C@H](O)[C@H]2O[C@H]2C[C@](C)(N)[C@H](O)[C@H](C)O2)Oc2ccc(cc2Cl)[C@H]1O` [VANCOMYCIN], the IC50 entry (against Adenosine receptor A1; in [1]; in [2]; in assay [3]; in assay [4]; in assay [5]) was “Not Active” each time. For the same molecule, the IC50 entry (in [6]; in assay [7]; at Endothelin-1 receptor) was “Not Active” in each case. Besides, the Ki result in [6] is given as “Not Active”.
Consider `COc1ccc(C(CN(C)C)C2(O)CCCCC2)cc1` (stereo not drawn) [VENLAFAXINE], for which the IC50 entry (against Adenosine receptor A1; in assay [1]; in assay [2]; in assay [3]; in [4]; in [5]) was “Not Active” throughout. For the same molecule, the IC50 result (in assay [6]; in assay [7]; at Endothelin-1 receptor) was “Not Active” throughout. The inhibitory constant (Ki) entry in assay [6] is “Not Active”.
Consider IVERMECTIN, for which the IC50 entry on Adenosine receptor A1 is “Not Active”; in assay [1], “Not Active”; in [2], “Not Active”; in assay [3] (read-out: IC50), 5.84 µM; in [4], “Not Active”; in [5], “Not Active”. The IC50 entry (in [6]; in [7]; on Endothelin-1 receptor) was “Not Active” in each case. Also, the Ki entry was “Not Active” at Adenosine receptor A1; “Not Active” in [1]; “Not Active” in [2]; 2190 nM in [3] (read-out: Ki); “Not Active” in assay [4]; “Not Active” in assay [5]. Moreover, the Ki entry (in assay [6]; in assay [7]; at Endothelin-1 receptor) was “Not Active” throughout.

The record behind these values is ChEMBL document CHEMBL1909046, “DrugMatrix in vitro pharmacology data”.
